Assay [1] deals with SARS-CoV-2 variants, Alphacoronavirus, Betacoronavirus, HCV, NoV, IAV, IAB. Nature of the assay: organism not typed. The note with it: read-out: EC50 against remaining viruses.
For assay [2] the test system is unchanged.

In the case of `Cc1c(-c2ccc(O)cc2)n(Cc2ccc(OCCN3CCCCC3)cc2)c2ccc(O)cc12` [Pipendoxifene], the EC50 in assay [1] is 3 to 8 µM. For the same molecule, the “potency against six SARS-CoV-2 variants and two coronaviruses” value in assay [2] is given as “submicromolar potency”.

One may read the EC50 as the concentration that produces a half-maximal response.

The record behind these values is patent US20260174744A1, “COMPOUNDS, COMPOSITIONS, AND METHODS OF TREATING RNA VIRAL INFECTIONS” (priority 2024, published 2026).
